One experiment has as its system A549 xenograft. Briefly: Zebrafish xenograft assay with implanted A549 cells. Type of experiment: in vivo. Particulars: zebrafish embryos, 100 uM, 4 days after implantation, n=10 to 15. As to the method: Zebrafish xenograft assay. Zebrafish embryos with implanted A549 cells were imaged within 6 hours of cell injection (day 0) and treated with compounds. At 4 days post injection (day 4) the embryos were imaged again. The area of fluorescence due to the labeled cells was measured using Image J at day 0 (area 0) and day 4 (area 4). The change in area was calculated by subtracting area 0 from area 4 (=d area). D area was then normalized for the size of the initial tumor by dividing d area by area 0 (=d area/area 0).

For the next experiment, the system named is A549. Kind of experiment: XTT cell death assay, A549 lung carcinoma cells. Type of experiment: cell-based. Particulars: Homo sapiens, # = 200 uM not tested, read-out: A549: concentration with effect on cancer cells. As to the method:
(§1) Maintenance and Treatment of Cell Lines. Human HepG2 hepatocarcinoma cells and human U87MG glioma cells (ATCC, Manassas, Va.) were maintained in EMEM medium supplemented with 10% FBS (Hyclone, Logan, Utah). The human 1321N1 astrocytoma cells (European Collection of Cell Cultures, Sigma-Aldrich) were cultured in Dulbecco's modified Eagle's medium supplemented with 10% FBS and 2 mM L-glutamine. Human prostate carcinoma cell line PC3 was cultured in F-12K medium (Life Technologies) supplemented 10% FBS. Human lung carcinoma cell line A549 was cultured in DMEM+2 mM glutamine+10% FBS. ER positive, estrogen independent for growth MCF7/LCC9 cell line was cultured in IMEM (Biofluids) supplemented with 5% charcoal stripped calf serum. Medulloblastoma cell line DAOY was cultured in Eagle's MEM supplemented with 10% FBS. All cell lines except MDA-MB-321 were cultured at 37° C. in 5% CO2, and the medium was replaced every 2-3 days. MDA-MB-231 was grown in Leibovitz's L-15 medium with 10% FBS without CO2 supplementation.
(§2) Cell death assay. The extent of cell death and toxicity of the compounds was tested by XTT assay. The cells were plated in their respective media in 96-well plates. The compounds and were added in dilutions ranging from 0.01 nM to 200 μM and for control DMSO to 1% was used. […] For XTT assay first the medium in the wells was replaced with 200 μs of fresh phenol-red free medium. Then 50 μls of XTT solution with PMS was added to the wells. The XTT solution was made adding 0.02% phenazine methosulfate (Sigma-Aldrich #P9625) to 1 mg/ml XTT sodium salt made up in phenol-red free RPMI (Sigma-Aldrich #X4636). The plate was incubated for 4 hours at 37° C. and then the absorbance was read at a wavelength of 490 nm.
In general terms: Formazan colour is commonly taken as a measure of viable cells.

The test system of experiment [1] is HepG2 cells. Kind of experiment: XTT cell death assay, HepG2 hepatocarcinoma cells. Type of experiment: cell-based, human. Particulars: Homo sapiens, HepG2, *Greater than 50% inhibition, dilutions 0.01 nM to 200 μM, usually 24 or 48 hours, read-out: HepG2* (liver cancer): concentration with greater than 50% inhibition. As to the method:
as §1, with “FBS.” for “FBS. All cell lines except MDA-MB-321 were cultured at 37° C. in 5% CO2, and the medium was replaced every 2-3 days. MDA-MB-231 was grown in Leibovitz's L-15 medium with 10% FBS without CO2 supplementation.”
as §2, with “#X4636).” for “#X4636). The plate was incubated for 4 hours at 37° C. and then the absorbance was read at a wavelength of 490 nm.”

The next experiment has as its system PC3 cells. Briefly: XTT cell death assay, PC3 prostate carcinoma cells. Type of experiment: cell-based. Particulars: Homo sapiens, PC-3, # = 200 uM not tested, read-out: PC3: concentration with effect on cancer cells. As to the method:
as §1, §2

In another experiment the test system is MCF7/LCC9 cell line. Kind of experiment: XTT cell death assay, MCF7/LCC9 cells. Type of experiment: cell-based. Particulars: Homo sapiens, # = 200 uM not tested, read-out: LCC-9: concentration with effect on cancer cells. How it is done:
as §1, §2

The subject of another experiment is tumor cells. Briefly: Effect on the growth of a variety of tumor cells (summary of Table 1). Particulars: IC50 value of less than 100 μM was considered active. Type of experiment: cell-based. As to the method:
as §1
Cell death assay. The extent of cell death and toxicity of the compounds was tested by XTT assay. The cells were plated in their respective media in 96-well plates. […] The plate was incubated for 4 hours at 37° C. and then the absorbance was read at a wavelength of 490 nm.
The effect of NT015 and NT016 on the growth of a variety of tumor cells was evaluated. […]

In a further experiment the test system is DAOY. Briefly: XTT cell death assay, DAOY medulloblastoma cells. Type of experiment: cell-based. Particulars: Homo sapiens, # = 200 uM not tested, read-out: DAOY: concentration with effect on cancer cells. As to the method: as §1, §2
For experiment [2], the system named is HepG2 cells. Kind of experiment: Caspase assay (Caspase-Glo 3/7) on HepG2 cells. Type of experiment: cell-based, human. Particulars: 48 hours after addition, 100 uM, n=4. As to the method:
Caspase Assay. Caspase assay was conducted by using the Promega Caspase-Glo 3/7 kit. 100 ul of caspase-Glo 3/7 reagent was added to each well of a white walled 96-well plate containing 100 ul of blank, negative control cells or treated cells in culture medium. The contents of the wells were mixed gently and incubated at room temperature for 30 minutes to 3 hours. The luminescence of each sample was read in a luminometer.

For the next experiment, the system named is MDA-MB-231. Kind of experiment: XTT cell death assay, MDA-MB-231 cells. Particulars: Homo sapiens, # = 200 uM not tested, read-out: MDA-MB-231: concentration with effect on cancer cells. Type of experiment: cell-based. As to the method:
as §1, §2

Data on 5 compounds can be found in patent US20190337889A1, “COMPOSITIONS AND METHODS OF REGULATING CANCER RELATED DISORDERS AND DISEASES” (ONCO THERAPIES LLC, priority 2016, published 2019).

Structures are written as SMILES.

Take `CC(Cc1cccc2ccccc12)NCCc1ccc(O)cc1` (centres unmarked) [NT016, 4-(2-((1-(naphthalen-1-yl)propan-2-yl)amino)ethyl)phenol]: the “area of A549 xenograft implant” value in the experiment with A549 xenograft is reported as “efficacy of reducing the area of xenograft significantly”. Moreover, the minimal effective concentration in the experiment on A549 worked out at 100 µM; with HepG2 cells [1], 100 µM; with PC3 cells, 200 µM; with MCF7/LCC9 cell line, 100 µM; with DAOY, 100 µM. The “inhibition of liver, lung, breast, prostate and CNS cancer cell growth” value in the experiment on tumor cells is reported as “potent inhibitors”.

For the compound `CC(N)Cc1ccc2ccccc2c1` (centres unmarked) [NT015, 1-(naphthalen-2-yl)propan-2-amine], in the experiment on HepG2 cells [2], the “caspase activity (fluorescence ratio to untreated cells)” value is reported as “increase in caspase activity”. In addition, the “inhibition of liver, lung, breast, prostate and CNS cancer cell growth” value with tumor cells is on record as “potent inhibitors”.

Turning to `CC(Cc1cccc2ccccc12)NCC(O)c1ccc(O)cc1` (centres unmarked) [NT027, 4-(1-hydroxy-2-((1-(naphthalen-1-yl)propan-2-yl)amino)ethyl)phenol], the “area of A549 xenograft implant” value with A549 xenograft is “efficacy of reducing the area of xenograft significantly”. In addition, the minimal effective concentration in the experiment on MDA-MB-231 and in the experiment with MCF7/LCC9 cell line was 100 µM each time. In the experiment with HepG2 cells [2], the “caspase activity (fluorescence ratio to untreated cells)” value is given as “increase in caspase activity”.

For the compound `CC(Cc1cccc2ccccc12)NCC(O)c1ccccc1O` (centres unmarked) [NT029, 2-(1-hydroxy-2-((1-(naphthalen-1-yl)propan-2-yl)amino)ethyl)phenol], the “area of A549 xenograft implant” value in the experiment with A549 xenograft is listed as “efficacy of reducing the area of xenograft significantly”. For the same compound, the minimal effective concentration with A549 was found to be 100 µM; in the experiment on HepG2 cells [1], 100 µM; in the experiment with PC3 cells it was 200 µM; in the experiment with MCF7/LCC9 cell line it was 100 µM; with DAOY it was 100 µM.

Regarding `CC(Cc1ccc2ccccc2c1)NCC(O)c1ccc(O)cc1` (centres unmarked) [NT026, 4-(1-hydroxy-2-((1-(naphthalen-2-yl)propan-2-yl)amino)ethyl)phenol], the “area of A549 xenograft implant” value with A549 xenograft is recorded as “efficacy of reducing the area of xenograft significantly”. Further, the minimal effective concentration in the experiment with MDA-MB-231, with A549, in the experiment with HepG2 cells [1], in the experiment with PC3 cells, in the experiment with MCF7/LCC9 cell line and in the experiment with DAOY was 100 µM throughout.
